Source: patent US11447533B2, “Antimicrobial and anticancer peptides and conjugates and compositions, methods, articles and kits relating thereto” (George Mason Research Foundation, Inc., priority 2018, dated 2022)

Tests used:
[1] = system: Klebsiella pneumoniae (ATCC BAA-1705); experiment: Antimicrobial efficacy against ESKAPE pathogens; type: cell-based; details: mammalian serum
Description: (§1) Antimicrobial Studies. The phosphate buffers used for antimicrobial assays were supplemented with non-nitrogenous energy source, 0.1% (w/v) glucose. To conduct antimicrobial assays, bacterial strains were first suspended in respective buffers. E. coli (ATCC 25922) and B. cereus (ATCC 11778) were grown in MHB II up to OD600 nm˜1 and stored as frozen stock in 20% glycerol at −80° C. Occasionally they were thawed and enumerated by serial dilution and spreading on MHB II agar plates. The concentrations of the frozen stocks of E. coli and B. cereus strains were 1.0-1.1*10^8 CFU/mL with OD600 nm˜0.8. In case of other bacterial strains, they were grown on the days of experiment up to OD600 nm˜1-1.5 and then adjusted to OD600 nm˜0.8. The growth media of the drug-resistant bacterial strains were supplemented with few of the respective antibiotics against which they are resistant. 200 μL of the 0.8 OD600 nm culture were added to 10 mL of the respective buffer to obtain a suspension which was used to incubate with equal volumes of peptide solution in the same buffer.
(§2) Antimicrobial assays in different phosphate buffers and serum were conducted by adapting, with necessary modifications a fast high-throughput method based on Virtual Colony Count technique and later modified by incorporating the use of resazurin. At first serial dilution of a microbial strain in respective buffer was poured in the wells of 96 well polypropylene microplate and was then added with same volume of 2× MHB II supplemented with 80 μg/mL resazurin and incubated at 35° C. in a Gemini EM Microplate Reader (Molecular Devices) overnight with intermittent shaking. As the microbe grows it reduces non-fluorescent resazurin to fluorescent resorufin and the fluorescent intensity of each well were measured (excitation=570 nm, emission=590 nm) each 5 min for 15 hours. The time (t, min) to reach a certain fluorescence (RFU=20000 with respect to the starting fluorescence) was correlated with the initial bacterial concentration (in CFU/mL) in the particular well to obtain a calibration plot of the form: Log([Bacteria],CFU/mL)=b+m*t Equation 4: […]
(§3) To obtain antimicrobial efficacy of the peptides, 50 μL of serially diluted peptide in a buffer was incubated with 50 μL microbial suspension in the same buffer for 3 hours in black polypropylene 96 well plate. After incubation the wells were added with 100 μL of 2× MHB II supplemented with 80 μg/mL resazurin and then incubated with continuous fluorescence reading for overnight time period as described earlier. The surviving microbial population (CFU/mL) in each well were calculated by first finding the time to reach a fluorescence of RFU=20000 and the correlation (4) for the specific microbial strain and buffer. % Survival represents the proportion of viable cells in peptide treated cells relative to cells treated with the respective buffer alone. Equation 5: […]
(§4) Finally, the antimicrobial effectiveness of each peptide against the particular microbial strain in the specific buffer was determined by plotting % microbial survival as a function of the log of the concentration of the peptide and fitting the resulting data to a variable-slope sigmoidal regression model (equation 6). […]
(§5) ATRA1-R3W2-HYD, NA-CATH and PMB were evaluated for their effectiveness in mammalian serum conditions against pathogenic bacteria of both normal and drug-resistant strains. […]

[2] = system: Pseudomonas aeruginosa; experiment: Antimicrobial efficacy against ESKAPE pathogens; type: cell-based
Description: as §1, §2, §3, §4, §5

[3] = system: multi-drug resistant (MDR) Acinetobacter baumannii (ATCC BAA-1795); experiment: Antimicrobial efficacy against ESKAPE pathogens; type: cell-based; details: mammalian serum
Description: as §1, §2, §3, §4, §5

[4] = system: ESKAPE pathogens; experiment: Antimicrobial efficacy against ESKAPE pathogens (all other than P. aeruginosa); type: cell-based; details: mammalian serum; susceptible and drug-resistant strains
Description: FIG. 8 is a graph showing antimicrobial efficacies of ATRA1-R3W2-HYD (blue), NA-CATH (dark orange) and PMB (green) against selected members of ESKAPE (Enterococcus faecium, Staphylococcus aureus, Klebsiella pneumoniae, Acinetobacter baumannii, Pseudomonas aeruginosa, and Enterobacter) pathogens. Both susceptible and drug-resistant strains were used. All the bacteria, except Pseudomonas aeruginosa, were tested under mammalian serum. P. aeruginosa results were obtained from testing in DPBS. The results are presented as mean of tests in triplicate with error-bars depicting the 95% confidence interval of the mean.
Antimicrobial Studies. The phosphate buffers used for antimicrobial assays were supplemented with non-nitrogenous energy source, 0.1% (w/v) glucose. […]
Antimicrobial assays in different phosphate buffers and serum were conducted by adapting, with necessary modifications a fast high-throughput method based on Virtual Colony Count technique and later modified by incorporating the use of resazurin. At first serial dilution of a microbial strain in respective buffer was poured in the wells of 96 well polypropylene microplate and was then added with same volume of 2× MHB II supplemented with 80 μg/mL resazurin and incubated at 35° C. in a Gemini EM Microplate Reader (Molecular Devices) overnight with intermittent shaking. […]

[5] = system: H-358 lung epithelial cancer cells; experiment: Cytotoxicity (Alamar blue); type: cell-based, human; details: ~6 hours, 10% fetal bovine serum
Description: FIG. 12 is a graph showing comparison of toxicities against Lung Primary Epithelial cells and Lung Cancerous Epithelial Cells, derived from H358 cell-line. Non-linear regression analysis of six-hour cytotoxicity data was performed to identify the concentration to achieve 50% lethality (LD50) for each toxic peptide. Each peptide was tested in triplicate.
Cytotoxicity. Cells were seeded in complete growth medium (Minimal Essential Medium, MEMα, supplemented with 10% Fetal Bovine Serum) into a culture-treated 96-well plate at a density of 25000 cells per well. After 24 hours, culture media was aspirated and replaced with media containing the selected peptide. No-serum experiments were conducted in Opti-MEM I reduced serum media (ThermoFisher, 31985062) and 10% serum experiments were performed in complete growth medium. In all cases, DBPS was used as a vehicle only control and buffer to serially dilute the peptides. After exposure to the peptides or vehicle-alone for the defined period, Alamar blue dye (resazurin) was added directly to the media and allowed to incubate for two hours. Following incubation, A570/A600 measurements were made to calculate reduction of resazurin dye to resorufin. A ratio of reduction in treated versus untreated cells was calculated in order to determine overall cell viability. The human cells were always maintained in a 37° C. incubator under 5% CO2. […]

RRWKRFFKRWKGGVIGVTFPF (SEQ ID NO: 50) [ATRA1-R3W2-HYD, ATRA1-R3W2 with hydrophobic tail of NA-CATH joined by -GG-]
antimicrobial effectiveness, in words [1]: effective in mammalian serum | antimicrobial effectiveness, in words ([2]; DPBS): good bactericidal properties | antimicrobial effectiveness, in words ([2]; mammalian serum): did not demonstrate antimicrobial effectiveness | antimicrobial effectiveness, in words [3]: effective in mammalian serum | antimicrobial effectiveness, in words [4]: highly effective, though in lower degree than PMB | LD50 [5]: ~24.5 µM
